Our source for the EC50 values is patent US8143374B2, “Polypeptide derivatives of parathyroid hormone (PTH)” (The General Hospital Corporation, priority 2006, dated 2012).

The target in this assay is T1, endogenous PTHR in ROS 17/2.8 cells (Rattus norvegicus, UniProt P25961).
T1 construct: ROS 17/2.8 cells are rat osteosarcoma cells and express the endogenous PTHR; endogenous in cells; host or cells: ROS 17/2.8 rat osteosarcoma cells
T1 sequence (P25961 27-591): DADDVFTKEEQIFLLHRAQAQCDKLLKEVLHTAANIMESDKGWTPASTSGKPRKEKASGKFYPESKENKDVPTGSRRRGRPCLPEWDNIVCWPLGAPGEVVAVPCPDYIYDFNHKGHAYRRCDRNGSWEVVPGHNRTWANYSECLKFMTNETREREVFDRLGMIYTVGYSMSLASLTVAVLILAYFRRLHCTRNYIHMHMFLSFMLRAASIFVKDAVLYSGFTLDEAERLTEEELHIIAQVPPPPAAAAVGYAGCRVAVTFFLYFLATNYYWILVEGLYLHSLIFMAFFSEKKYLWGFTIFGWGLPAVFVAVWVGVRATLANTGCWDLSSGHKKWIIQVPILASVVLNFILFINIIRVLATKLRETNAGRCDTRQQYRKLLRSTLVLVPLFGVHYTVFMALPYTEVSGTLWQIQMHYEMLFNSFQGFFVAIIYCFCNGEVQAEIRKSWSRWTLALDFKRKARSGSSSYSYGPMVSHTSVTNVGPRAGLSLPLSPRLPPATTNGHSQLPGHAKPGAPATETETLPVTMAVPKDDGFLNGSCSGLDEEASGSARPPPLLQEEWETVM
Kind of assay: Stimulation of intracellular cAMP in ROS 17/2.8 cells. Format: cell-based. As for the experimental part: Cell Culture—Cells were cultured at 37° C. in a humidified atmosphere containing 5% CO2 in Dulbecco's modified Eagle's medium (DMEM), supplemented with 10% fetal bovine serum (HyClone, Logan Utah), 100 units/ml penicillin G, and 100 ug/ml streptomycin penicillin G/streptomycin (Invitrogen Corp. Carlsbad, Calif.). For binding and cAMP studies performed with the intact PTHR, the HKRK-B7 and ROS 17/2.8 cell lines were used. HKRK-B7 cells are derived from the porcine kidney cell line LLC-PK1 and express, via stable DNA transfection, the wild-type human PTHR at an approximate surface density of 950,000 PTH-binding sites per cell. ROS 17/2.8 cells are rat osteosarcoma cells and express the endogenous PTHR at an approximate surface density of 80,000 PTH-binding sites per cell. The cells were plated and assayed in 24-well plates.
Stimulation of intracellular cAMP and inositol phosphate—The capacities of the ligands to stimulate adenylyl cyclase activity were assessed in intact ROS 17/2.8 cells, as described (Shimizu, M., (2001) Endocrinology 142:3068-3074). […] The cAMP in the thawed lysate was then quantified by radioimmuno assay. The stimulation of production of inositol phosphates (IP1+IP2+IP3) was assessed in COS-7 cells transfected with the intact human PTHR, as described previously (Shimizu, M., (2001) Endocrinology 142:3068-3074). […]

The sequence “SVSEIQLMHNLGKHLNSMEEVEWLRKKLQDV [Arg^20→Glu]” registered an EC50 of 59 ± 31 nM.
